Experimental findings from patent publication US9802943B2, “HIV inhibiting bicyclic pyrimidine derivatives” (Janssen Sciences Ireland UC, priority 2004, dated 2017) are described below.

Bounds are passed on as bounds.

The subject of series [1] is Strain D (mutation Y188L in HIV reverse transcriptase). As to the kind of experiment: cellular antiviral assay, HIV mutant strain D. The class given is cell-based. The conditions noted are these: for pEC50 D: strain D, Y188L; for EC50: Human immunodeficiency virus 1, read-out: pEC50 D (converted). Here is the method:
(§1) Because of the increasing emergence of drug resistant HIV strains, the present compounds were tested for their potency against clinically isolated HIV strains harboring several mutations. These mutations are associated with resistance to reverse transcriptase inhibitors and result in viruses that show various degrees of phenotypic cross-resistance to the currently commercially available drugs such as for instance AZT and delavirdine.
(§2) The antiviral activity of the compound of the present invention has been evaluated in the presence of wild type HIV and HIV mutants bearing mutations at the reverse transcriptase gene. The activity of the compounds is evaluated using a cellular assay and the residual activity is expressed in pEC50 values. The columns IIIB and A-G in the table list the pEC50 values against various strains IIIB, A-G. • Strain IIIB is wild type HIV-LAI strain • Strain A contains mutation Y181C in HIV reverse transcriptase, • Strain B contains mutation K103N in HIV reverse transcriptase, • Strain C contains mutation L100I in HIV reverse transcriptase, • Strain D contains mutation Y188L in HIV reverse transcriptase, • Strain E contains mutations L100I and K103N in HIV reverse transcriptase, • Strain F contains mutations K103N and Y181C in HIV reverse transcriptase, and • Strain G contains mutations L100I, K103N, Y181C, V179I E138G L214F, V278V/I • and A327A/V in HIV reverse transcriptase.

Series [2] relates to Strain C (mutation L100I in HIV reverse transcriptase). Put plainly: cellular antiviral assay, HIV mutant strain C. It is filed as cell-based. The conditions noted are these: for pEC50 C: strain C, L100I; for EC50: Human immunodeficiency virus 1, read-out: pEC50 C (converted). Here is the method: as §1, §2
The test system of series [3] is Strain E (mutations L100I and K103N in HIV reverse transcriptase). As to the kind of experiment: cellular antiviral assay, HIV mutant strain E. The class given is cell-based. The conditions noted are these: for pEC50 E: strain E, L100I and K103N; for EC50: Human immunodeficiency virus 1, read-out: pEC50 E (converted). On the procedure: as §1, §2
Series [4] has as its system Strain IIIB (wild type HIV-LAI strain). Put plainly: cellular antiviral assay, wild type HIV. It is filed as cell-based. Particulars: for pEC50 IIIB: strain IIIB, wild type HIV-LAI; for EC50: Human immunodeficiency virus 1, IIIB, read-out: pEC50 IIIB (converted). Here is the method:
as §1, §2

For series [5], the system named is Strain G (mutations L100I, K103N, Y181C, V179I E138G L214F, V278V/I and A327A/V in HIV reverse transcriptase). As to the kind of experiment: cellular antiviral assay, HIV mutant strain G. The conditions noted are these: for pEC50 G: strain G, L100I, K103N, Y181C, V179I E138G L214F, V278V/I and A327A/V; for EC50: Human immunodeficiency virus 1, read-out: pEC50 G (converted). It is filed as cell-based. Here is the method: as §1, §2

In series [6] the test system is Strain B (mutation K103N in HIV reverse transcriptase). Put plainly: cellular antiviral assay, HIV mutant strain B. The class given is cell-based. The conditions noted are these: for pEC50 B: strain B, K103N; for EC50: Human immunodeficiency virus 1, read-out: pEC50 B (converted). Here is the method:
as §1, §2

Series [7] relates to Strain A (mutation Y181C in HIV reverse transcriptase). As to the kind of experiment: cellular antiviral assay, HIV mutant strain A. The conditions noted are these: for pEC50 A: strain A, Y181C; for EC50: Human immunodeficiency virus 1, read-out: pEC50 A (converted). The class given is cell-based. Here is the method:
as §1, §2

In series [8] the test system is Strain F (mutations K103N and Y181C in HIV reverse transcriptase). As to the kind of experiment: cellular antiviral assay, HIV mutant strain F. It is filed as cell-based. Particulars: for pEC50 F: strain F, K103N and Y181C; for EC50: Human immunodeficiency virus 1, read-out: pEC50 F (converted). On the procedure:
as §1, §2

As for `CCc1cc(CCC#N)cc(CC)c1N1CCc2c(C)nc(Nc3ccc(C#N)cc3)nc21` [Compound 16], the “pEC50 D” value in series [1] stood at 7. Besides, in series [2], the “pEC50 C” value is 8.6. The “pEC50 E” value in [3] is reported as 8.1. Further, the “pEC50 IIIB” value in series [4] came out at 8.2. Moreover, in series [5], the “pEC50 G” value came out at 5.8. Also, the “pEC50 B” value in series [6] turned out to be 8.2. The “pEC50 A” value in [7] stood at 7.7. Moreover, the “pEC50 F” value in series [8] worked out at 7.3.
As for `CCc1cc(CCC#N)ccc1N1CCc2c(C)nc(Nc3ccc(C#N)cc3)nc21` [Compound 17], the “pEC50 D” value in series [1] was 7.7. The “pEC50 C” value in series [2] was 8.6. The “pEC50 E” value in series [3] was found to be 7.8. In series [4], the “pEC50 IIIB” value was found to be 9. Besides, the “pEC50 G” value in [5] was determined as 5.7. Besides, the “pEC50 B” value in series [6] came to 8.9. In series [7], the “pEC50 A” value was 8.2. Besides, the “pEC50 F” value in series [8] was determined as 7.2.
As to `Cc1cc(/C=C/C#N)cc(C)c1-n1cnc2cnc(Nc3ccc(C#N)cc3)nc21` [Compound 20], the melting point (commonly the temperature, or range, at which the solid turns liquid) is above 250 °C. The EC50 in series [1] was 15.8 nM. For the same compound, the EC50 in series [2] was 0.631 nM. Moreover, the EC50 in series [3] was 7.94 nM. For the same compound, the EC50 in [4] was 0.2 nM. Moreover, the EC50 in series [5] is 2000 nM. The EC50 in series [6] was 0.631 nM. Besides, the EC50 in series [7] is 2.51 nM. Further, the EC50 in series [8] is 39.8 nM.
Consider `Cc1cc(/C=C/C#N)cc(C)c1-n1c(-c2ccccc2)nc2cnc(Nc3ccc(C#N)cc3)nc21` [Compound 23], for which the “pEC50 D” value in series [1] is given as 7.7. Further, the “pEC50 C” value in series [2] is listed as 7.5. Besides, in series [3], the “pEC50 E” value is on record as 6.3. Also, the “pEC50 IIIB” value in series [4] amounted to 7.7. In [5], the “pEC50 G” value was found to be 5.7. Further, the “pEC50 B” value in series [6] was determined as 7.6. Besides, in series [7], the “pEC50 A” value turned out to be 7.1. The “pEC50 F” value in series [8] is given as 6.4.
Consider `N#C/C=C/c1cc(F)c(-n2cnc3cnc(Nc4ccc(C#N)cc4)nc32)c(Cl)c1` [Compound 24], for which the EC50 in [1] is 12.6 nM; in series [2] it was 0.2 nM; in [3] it was 6.31 nM; in [4], 0.1 nM; in series [5], 2000 nM; in series [6], 0.1 nM. Besides, the EC50 in [7] is 3.16 nM; in series [8] it was 12.6 nM.
On to `Cc1cc(/C=C/C#N)cc(C)c1-n1c(-c2ccccn2)nc2cnc(Nc3ccc(C#N)cc3)nc21` [Compound 25], for which, in [1], the “pEC50 D” value came to 7.5. The “pEC50 C” value in series [2] stood at 7.2. The “pEC50 E” value in series [3] was 5.9. Further, the “pEC50 IIIB” value in [4] is 8.1. For the same compound, in [5], the “pEC50 G” value is reported as 5.6. Moreover, in series [6], the “pEC50 B” value is 7.6. In addition, the “pEC50 A” value in series [7] is recorded as 7.5. Moreover, the “pEC50 F” value in [8] stood at 7.2.
Regarding `Cc1cc(/C=C/C#N)cc(C)c1-n1c(N)nc2cnc(Nc3ccc(C#N)cc3)nc21` [Compound 26], the EC50 in [1] was 79.4 nM; in series [2] it was 20 nM; in [3], 126 nM; in series [4], 2.51 nM; in series [5], 12600 nM; in [6] it was 12.6 nM. Further, the figures for the EC50 in series [7] and in [8] were 25.1 nM and 63.1 nM, respectively.
For `Cc1cc(/C=C/C#N)cc(C)c1-n1ccc2c(C)nc(Nc3ccc(C#N)cc3)nc21` [Compound 28], the “pEC50 D” value in [1] turned out to be 7.7. Further, the “pEC50 C” value in series [2] is reported as 8.6. Also, the “pEC50 E” value in series [3] is 8.5. Moreover, the “pEC50 IIIB” value in [4] came out at 8.5. Moreover, the “pEC50 G” value in series [5] amounted to 5.7. Moreover, in series [6], the “pEC50 B” value came to 8.5. The “pEC50 A” value in series [7] was determined as 7.9. Moreover, the “pEC50 F” value in [8] turned out to be 7.8.
In turn, `Cc1cc(/C=C/C#N)cc(C)c1-n1c(=S)[nH]c2cnc(Nc3ccc(C#N)cc3)nc21` [Compound 31] showed a melting point above 250 °C. For the same compound, the EC50 in series [1] is 79.4 nM. The EC50 in series [2] was 2.51 nM. Moreover, in series [3], the EC50 was 398 nM. For the same compound, the EC50 in series [4] is 1 nM. In addition, the EC50 in series [5] was 15800 nM. Further, the EC50 in [6] was 2.51 nM. In addition, the EC50 in series [7] was 12.6 nM. The EC50 in series [8] is 39.8 nM.
For the compound `CCOC(=O)c1cc(C)c(N2CCc3c(C)nc(Nc4ccc(C#N)cc4)nc32)c(C)c1` [Compound 33], the melting point was found to be 92 °C. Moreover, in [1], the EC50 was 631 nM. Besides, the EC50 in series [2] is 794 nM. For the same compound, in [3], the EC50 is 3980 nM. Besides, the EC50 in series [4] is 50.1 nM. Besides, in [5], the EC50 is 12600 nM. In series [6], the EC50 is 126 nM. For the same compound, the EC50 in series [7] was 2510 nM. In addition, the EC50 in [8] was 3160 nM.
In turn, `C/C(C#N)=C\c1cc(C)c(N2CCc3c(C)nc(Nc4ccc(C#N)cc4)nc32)c(C)c1` [Compound 34] came in with a melting point of 105 °C. In addition, the EC50 in [1] was 20 nM. The EC50 in [2] was 3.98 nM. Besides, in [3], the EC50 was 15.8 nM. Further, in series [4], the EC50 was 2 nM. Also, the EC50 in series [5] was 3980 nM. The EC50 in series [6] was 2.51 nM. Moreover, the EC50 in [7] is 15.8 nM. The EC50 in series [8] is 20 nM.
